Test results reported in ChEMBL document CHEMBL3885861, “Open TG-GATES”.

Organism: Rattus norvegicus
Test: Open TG-GATES - Regimen: Daily Repeat
Assay type: toxicity, organism-based, Sprague-Dawley
Set-up: regimen Daily Repeat, gender Male, age 6 weeks
Conditions: in vivo, po, 6 mg/kg, route gavage, dose level Low; for APTT / Bas / Eos / Fbg / Hb / Ht / Lym / MCH / MCHC / MCV / Mono / Neu / PT / Plat / RBC / Ret / WBC: tissue Blood; for KIDNEY_L / KIDNEY_R / KIDNEY_TOTAL: tissue Kidney; for LIVER: tissue Liver; for A/G / ALP / ALT / AST / BUN / CRE / Ca / Cl / DBIL / GLC / IP / K / LDH / Na / PL / RALB / TBIL / TC / TG / TP / gamma-GTP: tissue Plasma

Question: What does the source list for CC(C)NNC(=O)c1ccncc1 [IPRONIAZID]?
Answer: TERMINAL_BW (72 h, time 3 day): 205.6 g; APTT (72 h, time 3 day): 20.8 s; Bas (72 h, time 3 day): 0%; Eos (72 h, time 3 day): 1%; Fbg (72 h, time 3 day): 309.2 mg/dL; Hb (72 h, time 3 day): 13.5 g/dL; Ht (72 h, time 3 day): 39.1%; Lym (72 h, time 3 day): 78.4%; MCH (72 h, time 3 day): 21.3 pg; MCHC (72 h, time 3 day): 34.4%; MCV (72 h, time 3 day): 61.9 fL; Mono (72 h, time 3 day): 2.2%; Neu (72 h, time 3 day): 17.2%; PT (72 h, time 3 day): 16.2 s; Plat (72 h, time 3 day): 123.8 x10_4/uL; RBC (72 h, time 3 day): 632.6 x10_4/ul; Ret (72 h, time 3 day): 6.8%; WBC (72 h, time 3 day): 92 x10_2/uL; KIDNEY_L (72 h, time 3 day): 0.9 g; KIDNEY_R (72 h, time 3 day): 0.9 g; KIDNEY_TOTAL (72 h, time 3 day): 1.8 g; LIVER (72 h, time 3 day): 9.6 g; A/G (72 h, time 3 day): 1.4; ALP (72 h, time 3 day): 1667 IU/L; ALT (72 h, time 3 day): 37.4 IU/L; AST (72 h, time 3 day): 73.8 IU/L; BUN (72 h, time 3 day): 17.2 mg/dL; CRE (72 h, time 3 day): 0.2 mg/dL; Ca (72 h, time 3 day): 10.6 mg/dL; Cl (72 h, time 3 day): 108.8 meq/L; DBIL (72 h, time 3 day): 0 mg/dL; GLC (72 h, time 3 day): 187.2 mg/dL; IP (72 h, time 3 day): 7.2 mg/dL; K (72 h, time 3 day): 4.3 meq/L; LDH (72 h, time 3 day): 266.6 IU/L; Na (72 h, time 3 day): 143.2 meq/L; PL (72 h, time 3 day): 146.2 mg/dL; RALB (72 h, time 3 day): 3.2 g/dL; TBIL (72 h, time 3 day): 0.002 mg/dL; TC (72 h, time 3 day): 77.2 mg/dL; TG (72 h, time 3 day): 102.2 mg/dL; TP (72 h, time 3 day): 5.6 g/dL; gamma-GTP (72 h, time 3 day): 1.2 IU/L; TERMINAL_BW ([…], time 7 day): 237.7 g; TERMINAL_BW ([…], time 14 day): 274.7 g; TERMINAL_BW ([…], time 28 day): 367.4 g; APTT ([…], time 7 day): 21.4 s; Bas ([…], time 7 day): 0%; Eos ([…], time 7 day): 0.8%; Fbg ([…], time 7 day): 315.6 mg/dL; Hb ([…], time 7 day): 13.4 g/dL; Ht ([…], time 7 day): 37.5%; Lym ([…], time 7 day): 83.6%; MCH ([…], time 7 day): 21.3 pg; MCHC ([…], time 7 day): 35.6%; MCV ([…], time 7 day): 59.7 fL; Mono ([…], time 7 day): 2.2%; Neu ([…], time 7 day): 12.6%; PT ([…], time 7 day): 15.4 s; Plat ([…], time 7 day): 114 x10_4/uL; RBC ([…], time 7 day): 628.6 x10_4/ul; Ret ([…], time 7 day): 5.1%; WBC ([…], time 7 day): 110.8 x10_2/uL; APTT ([…], time 14 day): 22.2 s; Bas ([…], time 14 day): 0%; Eos ([…], time 14 day): 1%; Fbg ([…], time 14 day): 289.4 mg/dL; Hb ([…], time 14 day): 13.8 g/dL; Ht ([…], time 14 day): 40%; Lym ([…], time 14 day): 81.6%; MCH ([…], time 14 day): 20.1 pg; MCHC ([…], time 14 day): 34.6%; MCV ([…], time 14 day): 58 fL; Mono ([…], time 14 day): 2.2%; Neu ([…], time 14 day): 14.8%; PT ([…], time 14 day): 15.7 s; Plat ([…], time 14 day): 118.3 x10_4/uL; RBC ([…], time 14 day): 690.8 x10_4/ul; Ret ([…], time 14 day): 4.7%; WBC ([…], time 14 day): 112.4 x10_2/uL; APTT ([…], time 28 day): 22.6 s; Bas ([…], time 28 day): 0%; Eos ([…], time 28 day): 1%; Fbg ([…], time 28 day): 317 mg/dL; Hb ([…], time 28 day): 13.7 g/dL; Ht ([…], time 28 day): 39%; Lym ([…], time 28 day): 78.8%; MCH ([…], time 28 day): 20 pg; MCHC ([…], time 28 day): 35.1%; MCV ([…], time 28 day): 56.8 fL; Mono ([…], time 28 day): 2%; Neu ([…], time 28 day): 17%; PT ([…], time 28 day): 15.8 s; Plat ([…], time 28 day): 111.4 x10_4/uL; RBC ([…], time 28 day): 687.6 x10_4/ul; Ret ([…], time 28 day): 4.7%; WBC ([…], time 28 day): 109.2 x10_2/uL; KIDNEY_L ([…], time 7 day): 1 g; KIDNEY_R ([…], time 7 day): 1 g; KIDNEY_TOTAL ([…], time 7 day): 2.1 g; KIDNEY_L ([…], time 14 day): 1.1 g; KIDNEY_R ([…], time 14 day): 1.1 g; KIDNEY_TOTAL ([…], time 14 day): 2.2 g; KIDNEY_L ([…], time 28 day): 1.3 g; KIDNEY_R ([…], time 28 day): 1.3 g; KIDNEY_TOTAL ([…], time 28 day): 2.6 g; LIVER ([…], time 7 day): 10.7 g; LIVER ([…], time 14 day): 11.9 g; LIVER ([…], time 28 day): 14.7 g; A/G ([…], time 7 day): 1.2; ALP ([…], time 7 day): 1548 IU/L; ALT ([…], time 7 day): 39.8 IU/L; AST ([…], time 7 day): 72.8 IU/L; BUN ([…], time 7 day): 18 mg/dL; CRE ([…], time 7 day): 0.2 mg/dL; Ca ([…], time 7 day): 10.6 mg/dL; Cl ([…], time 7 day): 107.6 meq/L; DBIL ([…], time 7 day): 0 mg/dL; GLC ([…], time 7 day): 189.4 mg/dL; IP ([…], time 7 day): 6.5 mg/dL; K ([…], time 7 day): 4.3 meq/L; LDH ([…], time 7 day): 234.6 IU/L; Na ([…], time 7 day): 141 meq/L; PL ([…], time 7 day): 153.2 mg/dL; RALB ([…], time 7 day): 3.1 g/dL; TBIL ([…], time 7 day): 0.002 mg/dL; TC ([…], time 7 day): 76.8 mg/dL; TG ([…], time 7 day): 125.8 mg/dL; TP ([…], time 7 day): 5.6 g/dL; gamma-GTP ([…], time 7 day): 1.4 IU/L; A/G ([…], time 14 day): 1.1; ALP ([…], time 14 day): 1195.8 IU/L; ALT ([…], time 14 day): 41 IU/L; AST ([…], time 14 day): 69 IU/L; BUN ([…], time 14 day): 18 mg/dL; CRE ([…], time 14 day): 0.2 mg/dL; Ca ([…], time 14 day): 10.5 mg/dL; Cl ([…], time 14 day): 107.4 meq/L; DBIL ([…], time 14 day): 0 mg/dL; GLC ([…], time 14 day): 180 mg/dL; IP ([…], time 14 day): 6.5 mg/dL; K ([…], time 14 day): 4.3 meq/L; LDH ([…], time 14 day): 160.8 IU/L; Na ([…], time 14 day): 141.2 meq/L; PL ([…], time 14 day): 161 mg/dL; RALB ([…], time 14 day): 3 g/dL; TBIL ([…], time 14 day): 0.004 mg/dL; TC ([…], time 14 day): 80.6 mg/dL; TG ([…], time 14 day): 148 mg/dL; TP ([…], time 14 day): 5.7 g/dL; gamma-GTP ([…], time 14 day): 2.2 IU/L; A/G ([…], time 28 day): 1.1; ALP ([…], time 28 day): 1033.6 IU/L; ALT ([…], time 28 day): 42.6 IU/L; AST ([…], time 28 day): 71.8 IU/L; BUN ([…], time 28 day): 18 mg/dL; CRE ([…], time 28 day): 0.2 mg/dL; Ca ([…], time 28 day): 10.6 mg/dL; Cl ([…], time 28 day): 106.6 meq/L; DBIL ([…], time 28 day): 0 mg/dL; GLC ([…], time 28 day): 191 mg/dL; IP ([…], time 28 day): 6.2 mg/dL; K ([…], time 28 day): 4.3 meq/L; LDH ([…], time 28 day): 167.4 IU/L; Na ([…], time 28 day): 142 meq/L; PL ([…], time 28 day): 151.6 mg/dL; RALB ([…], time 28 day): 3.2 g/dL; TBIL ([…], time 28 day): 0.02 mg/dL; TC ([…], time 28 day): 77.6 mg/dL; TG ([…], time 28 day): 135.6 mg/dL; TP ([…], time 28 day): 6 g/dL; gamma-GTP ([…], time 28 day): 2 IU/L
